According to US20100179185A1, “Novel Aminothienopyridinone Derivatives Processes for Preparing Them and Pharmaceutical Compositions Thereof” (UCB PHARMA, S.A., priority 2006, published 2010):

Legend:
[1] = test system: LPS stimulated release of TNF from Human whole blood; assay: LPS stimulation of whole blood, TNF-α release (ELISA); format: cell-based; conditions: LPS 1 μg/ml, 18 hours, 37° C., n=12
Procedure: Inhibitor stocks (10 mM) are kept as a frozen solution (−20° C.) in DMSO. Serial dilutions of inhibitors are prepared in DMSO as 200-times concentrated stocks. Inhibitors are diluted 1 in 200 into tissue culture media, prewarmed to 37° C. and transferred to plates containing PBMC. PBMC and inhibitors are incubated together for 30 mins prior to addition of LPS. Inhibitors used in whole blood assays are prepared according to a different regime. Using the same stock solution, serial dilutions of inhibitors are prepared in DMSO. Inhibitors (14) are then diluted 1 in 500 straight into whole blood. Inhibitor is incubated with whole blood for 30 mins prior to the addition of LPS.
Whole blood is taken by venous puncture using heparinised vacutainers (Becton Dickinson), and 500 μl of blood aliquoted into each well of a 96 deep well plate. After the addition of inhibitor, blood is stimulated with an optimal dose of LPS (E coli strain B5:055, Sigma, at a final concentration of 1 μg ml^−1) and incubated at 37° C. without CO2 for 18 hours. TNF-α levels are measured from cell free supernatants by sandwich ELISA (R&D Systems, # DY210).

[2] = test system: LPS stimulated TNF release in rat; assay: Rat LPS induced TNF release; format: in vivo; conditions: 1.5 h, male Lewis rats, LPS 1 mg/kg i.v., plasma TNFα at 90 minutes, compound dosed p.o.
Procedure: Male Lewis rats (180-200 g) are anaesthetized with Isofluor and injected i.v. with LPS (1 mg/kg) in a volume of 0.5 ml sterile saline. After 90 minutes blood is collected into heparin tubes for preparation of plasma samples. Plasma is stored at −80° C. prior to assay for TNFα by commercial ELISA.

`Cc1cccc(Nc2c(C(=O)N3CCC[C@@H]3CO)sc3c2ccc(=O)n3-c2c(F)cccc2F)n1` [Compound 1] was tested, and the IC50 [1] was 30 to 200 nM and the ED50 [2] was less than 10 mg/kg.
